{"source": "patent US20220323429A1", "about": "“PIMAVANSERIN FOR TREATING NEURODEGENERATIVE DISEASES” (ACADIA Pharmaceuticals Inc., priority 2019, published 2022)", "experiment": "In-use Stability Assay (HPLC) of pimavanserin 34 mg capsule contents in liquid/soft food vehicles", "assay_type": "physicochemical", "details": "for Assay: ambient; for Time 0 (%) assay: time 0, average (n=6) accuracy/recovery", "method": "Analytical HPLC Stability Study experiments (Example 1) were performed on Agilent 1200 Series, or equivalent; Waters XBridge C18 column, 5 μm 150×4.6 mm; mobile phase: Solvent A: 50 mM ammonium bicarbonate, pH 8.0; Solvent B: acetonitrile/methanol, 80:20 (v/v); Flow rate: 1 mL/min; Inj. Volume 20 μL; Autosampler Temp. 5° C.; column temperature: 40° C., detection UV at 210 nm; sample concentration (as free base) assay: 0.068 mg/mL, impurity: 0.68 mg/mL; standard concentration (as free base) 0.068 mg/mL; PLOQ Std. 0.05% of 0.68 mg/mL; SST solution, 1% of 0.68 mg/mL (impurities A, C, D, E, F, and G); diluent for standards 80/20 (v/v) ethanol/water; diluent for samples, ethanol; run time 40 min; gradient method: 0 min mobile phase A (90%) and mobile phase B (10%) to 30 min mobile phase A (0%), and mobile phase B (100%); then 30.1 min to 40 min mobile phase A (90%), mobile phase B (10%).\nThe stability of pimavanserin for administration via a nasogastric (NG) tube was assessed by sprinkling the content of one pimavanserin 34 mg capsule in water, applesauce, vanilla Ensure, and non-pulp orange juice. Samples were tested at time 0, 2, 4, and 24 hours after storage at ambient conditions. Samples were prepared in triplicate and average (n=6) accuracy/recovery results from the assay method were used at time 0.\nFor each sample, one capsule was weighed, and the content of the capsule dropped into a 500 mL volumetric flask containing the amount of vehicle specified in Table 1. The empty capsule shell was weighed and discarded. The flasks were gently swirled to ensure the capsule contents were visually incorporated with the vehicle. The flasks were kept at ambient temperature for each time point 2, 4, and 24 hours. Time 0 samples were processed immediately.\nAt the specified time point, a stir bar and approximately 450 mL of diluent were added to the flask. The samples were stirred vigorously for 2 hours, and then left on the bench overnight. The following day the flasks were sonicated for approximately 15-30 minutes. The stir bar was removed and rinsed carefully with diluent into the flask, and then the flask was diluted to volume with diluent and mixed well by inversion. An aliquot of each solution was centrifuged for 5 minutes at 10000 rpm. The supernatant was transferred to a HPLC vial and injected for analysis.", "data": [{"compound": "CC(C)COc1ccc(CNC(=O)N(Cc2ccc(F)cc2)C2CCN(C)CC2)cc1", "note": "[Pimavanserin, N-(4-Fluorophenylmethyl)-N-(1-methylpiperidin-4-yl)-N′-(4-(2-methylpropyloxy)phenylmethyl)carbamide]", "values": [{"measurement": "Assay", "setting": "34 mg capsule in Ensure 60 mL, T = 2 h", "result": 100.3, "unit": "%"}, {"measurement": "Assay", "setting": "34 mg capsule in Ensure 60 mL, T = 4 h", "result": 100.7, "unit": "%"}, {"measurement": "Assay", "setting": "34 mg capsule in Ensure 60 mL, T = 24 h", "result": 98.1, "unit": "%"}, {"measurement": "Assay", "setting": "34 mg capsule in applesauce 40 g, T = 2 h", "result": 99.9, "unit": "%"}, {"measurement": "Assay", "setting": "34 mg capsule in applesauce 40 g, T = 4 h", "result": 97.7, "unit": "%"}, {"measurement": "Assay", "setting": "34 mg capsule in applesauce 40 g, T = 24 h", "result": 96.3, "unit": "%"}, {"measurement": "Assay", "setting": "34 mg capsule in non-pulp orange juice 60 mL, T = 2 h", "result": 99.2, "unit": "%"}, {"measurement": "Assay", "setting": "34 mg capsule in non-pulp orange juice 60 mL, T = 4 h", "result": 98.0, "unit": "%"}, {"measurement": "Assay", "setting": "34 mg capsule in non-pulp orange juice 60 mL, T = 24 h", "result": 98.3, "unit": "%"}, {"measurement": "Assay", "setting": "34 mg capsule in water 40 mL, T = 2 h", "result": 97.7, "unit": "%"}, {"measurement": "Assay", "setting": "34 mg capsule in water 40 mL, T = 4 h", "result": 95.6, "unit": "%"}, {"measurement": "Assay", "setting": "34 mg capsule in water 40 mL, T = 24 h", "result": 99.3, "unit": "%"}, {"measurement": "Absolute Difference from Time 0", "setting": "Ensure, T = 2 h", "result": 0.3, "unit": "%"}, {"measurement": "Absolute Difference from Time 0", "setting": "Ensure, T = 4 h", "result": 0.7, "unit": "%"}, {"measurement": "Absolute Difference from Time 0", "setting": "Ensure, T = 24 h", "result": 1.9, "unit": "%"}, {"measurement": "Absolute Difference from Time 0", "setting": "applesauce, T = 2 h", "result": 2.0, "unit": "%"}, {"measurement": "Absolute Difference from Time 0", "setting": "applesauce, T = 4 h", "result": 4.2, "unit": "%"}, {"measurement": "Absolute Difference from Time 0", "setting": "applesauce, T = 24 h", "result": 5.6, "unit": "%"}, {"measurement": "Time 0 (%) assay", "setting": "applesauce", "result": 101.9, "unit": "%"}, {"measurement": "Assay values difference from time 0", "setting": "individual capsules, up to 24 hours, all vehicles", "result": "≤ 5", "unit": "%"}, {"measurement": "Absolute Difference from Time 0", "setting": "orange juice, T = 2 h", "result": 1.1, "unit": "%"}, {"measurement": "Absolute Difference from Time 0", "setting": "orange juice, T = 4 h", "result": 2.3, "unit": "%"}, {"measurement": "Absolute Difference from Time 0", "setting": "orange juice, T = 24 h", "result": 2.0, "unit": "%"}, {"measurement": "Time 0 (%) assay", "setting": "orange juice", "result": 100.3, "unit": "%"}, {"measurement": "stability in all vehicles", "setting": "over 24 hours at ambient room temperature", "result": "acceptable"}, {"measurement": "Time 0 (%) assay", "setting": "vanilla Ensure", "result": 100.0, "unit": "%"}, {"measurement": "Absolute Difference from Time 0", "setting": "water, T = 2 h", "result": 1.2, "unit": "%"}, {"measurement": "Absolute Difference from Time 0", "setting": "water, T = 4 h", "result": 3.3, "unit": "%"}, {"measurement": "Absolute Difference from Time 0", "setting": "water, T = 24 h", "result": 0.4, "unit": "%"}, {"measurement": "Time 0 (%) assay", "setting": "water", "result": 98.9, "unit": "%"}]}]}
